Test results reported in patent publication US8394377B2, “Methods for treating cancer using combination therapy” (The Regents of the University of Colorado, priority 2008, dated 2013).

Assays:
Type in all cases: cell-based
[1] = Percent viability of treated MCF7 cells (flow cytometry); settings: human, 5 mg/ml DCA, 0.1 mg/ml Etomoxir, or both, time point (24 or 48 hrs) not given
Protocol: (§1) 1. Cell Culture Conditions: The MCF7 and MCF7 ADR cell lines were purchased from American Type Culture Collection, were thawed, and grown in RPMI 1640 medium supplemented with standard supplements, including 10% fetal calf serum, gentamycin, penicillin, streptomycin, sodium pyruvate, HEPES buffer, 1-glutamine, and 2-ME.
(§2) 2. Methods: Cells were plated into a 12 well plate with 4 mis total volume containing approximately 0.6×10^6/well for MCF7 cells and 0.8×10^6/well for MCF7 ADR cells. Treatment groups included no treatment as control; 5 mg/ml Dichloroacetate; 0.1 mg/ml Etomoxir; Both 5 mg/ml DCA and 0.1 mg/ml Etomoxir.
(§3) The cells were incubated at 37° C. in an atmosphere containing 5% CO2 and approximately 92% humidity. The cells were incubated for 24 and 48 hours. At each time point, the cells from that experimental time were harvested and stained for flow cytometric analysis of cell surface expression of HER-2/neu using anti-human HER-2 Fitc. (BD biosciences, Catalogue #340553).

[2] = Percent viability of treated MCF7 ADR cells (flow cytometry); settings: human, 5 mg/ml DCA, 0.1 mg/ml Etomoxir, or both, time point (24 or 48 hrs) not given
Protocol: as §1, §2, §3

HER-2 on MCF7 ADR cells = assay: Cell surface HER-2 expression by flow cytometry with FITC anti-human HER-2
Protocol: as §1, §2, §3
Harvested cells were stained using standard fixed staining procedure that called for a 1:5 dilution of Fitc-anti-human HER-2 or isotype control. […] Samples were acquired and analyzed on a Coulter Excel Flow Cytometer. […]
The results in the Figures are expressed in histogram analyses. The Y axis represents cell number of the 5000 live cells versus the X axis which is a reflection of relative Fitc fluorescence. […]

Row | Compound | viability [1] [%] | viability [2] [%] | HER-2 expression (HER-2 on MCF7 ADR cells; HER-2 lo/negative MCF7-Adr cells, as shown in the figures) | HER-2 cell surface expression (HER-2 on MCF7 ADR cells; MCF7 ADR cells, 48 hours, 0.1 mg/ml Etomoxir)
1 | O=C(O)C(Cl)Cl [DCA, Dichloroacetate] | 42 | 58 |  | 
2 | CCOC(=O)C1(CCCCCCOc2ccc(Cl)cc2)CO1 (stereo not drawn) [Etomoxir, 2-(6-(4-chlorophenoxy)-hexyl)-oxirane-2-carboxylic acid ethyl ester] | 78 | 66 | major increase | noticeable Increase
